Reference: patent US20240217978A1 (CHONG KUN DANG PHARMACEUTICAL CORP., priority 2021, published 2024)

Target: human adenosine A2a receptor (Homo sapiens (Human), UniProt P29274)
Assay: A2a receptor binding affinity, [3H]-NECA radioligand binding test
Conditions: [3H]-NECA 37 nM; membrane from HEK-293 cells transfected with human adenosine A2a receptor
Outline: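 Membranes from HEK-293 cells expressing human A2a receptor were incubated with [3H]-NECA (final 37 nM) and compound for 1 h at room temperature in 50 mM Tris, 10 mM MgCl2, 1 mM EDTA, pH 7.4. Bound ligand was filtered on PEI-coated plates and counted by scintillation to derive IC50 (μM).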

Chain of human adenosine A2a receptor (P29274 whole entry): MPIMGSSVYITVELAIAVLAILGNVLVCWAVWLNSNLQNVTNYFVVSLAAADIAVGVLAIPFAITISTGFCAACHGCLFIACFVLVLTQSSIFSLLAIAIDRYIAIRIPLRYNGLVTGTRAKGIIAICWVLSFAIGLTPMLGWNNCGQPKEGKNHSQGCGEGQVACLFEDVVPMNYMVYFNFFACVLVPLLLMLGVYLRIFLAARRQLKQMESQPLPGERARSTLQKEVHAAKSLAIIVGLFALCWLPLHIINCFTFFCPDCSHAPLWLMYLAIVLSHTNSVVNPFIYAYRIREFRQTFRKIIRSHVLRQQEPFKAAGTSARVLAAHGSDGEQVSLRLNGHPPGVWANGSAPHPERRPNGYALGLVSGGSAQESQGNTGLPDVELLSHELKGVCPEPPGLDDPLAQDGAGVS

| Compound | IC50 [nM] |
| --- | --- |
| Nc1nc(N2CCC[C@H]2C(=O)N2CCC(C3CCN(CC(F)(F)F)CC3)CC2)cc2nc(-c3ccco3)nn12 [Example 376, (S)-(1-(5-amino-2-(furan-2-yl)-[1,2,4]triazolo[1,5-c]pyrimidin-7-yl)pyrrolidin-2-yl)(1′-(2,2,2-trifluoroethyl)-[4,4′-bipiperidin]-1-yl)methanone] | 1 |
| CC(F)(F)CN1CCN(C(=O)[C@@H]2CCCN2c2cc3nc(-c4ccco4)nn3c(N)n2)CC1 [Example 294, (S)-(1-(5-amino-2-(furan-2-yl)-[1,2,4]triazolo[1,5-c]pyrimidin-7-yl)pyrrolidin-2-yl)(4-(2,2-difluoropropyl)piperazin-1-yl)methanone] | 4 |
| Nc1nc(N2CCC[C@H]2C(=O)N2CC3(CCN(CC(F)(F)F)CC3)C2)nc2nc(-c3ccco3)nn12 [Example 363, (S)-(1-(7-amino-2-(furan-2-yl)-[1,2,4]triazolo[1,5-a][1,3,5]triazin-5-yl)pyrrolidin-2-yl)(7-(2,2,2-trifluoroethyl)-2,7-diazaspiro[3-5]nonan-2-yl)methanone] | 12 |
| Cc1ccc(-c2nc3nc(N4CCC[C@H]4C(=O)N4CCN(c5nccs5)CC4)nc(N)n3n2)o1 [Example 202, 2-(4-((7-amino-2-(5-methylfuran-2-yl)-[1,2,4]triazolo[1,5-a][1,3,5]triazin-5-yl)-L-prolyl)piperazin-1-yl)thiazole] | 7 |
| Nc1nc(N2CCC[C@H]2C(=O)N2CCN(CC(F)(F)C(F)(F)C(F)(F)F)CC2)nc2nc(-c3ccco3)nn12 [Example 228, (S)-(1-(7-amino-2-(furan-2-yl)-[1,2,4]triazolo[1,5-a][1,3,5]triazin-5-yl)pyrrolidin-2-yl)(4-(2,2,3,3,4,4,4-heptafluorobutyl)piperazin-1-yl)methanone] | 2 |
| Cc1ccc(-c2nc3nc(N4CC[C@H]4C(=O)N4CCN(c5ccc(F)cc5F)CC4)nc(N)n3n2)o1 [Example 209, (S)-(1-(7-amino-2-(5-methylfuran-2-yl)-[1,2,4]triazolo[1,5-a][1,3,5]triazin-5-yl)azetidin-2-yl)(4-(2,4-difluorophenyl)piperazin-1-yl)methanone] | 1 |
| Nc1nc(N2CCC[C@H]2C(=O)N2CCC3(CC2)CN(Cc2ccc(F)cc2F)C3)nc2nc(-c3ccco3)nn12 [Example 52, (S)-(1-(7-amino-2-(furan-2-yl)-[1,2,4]triazolo[1,5-a][1,3,5]triazin-5-yl)pyrrolidin-2-yl)(2-(2,4-difluorobenzyl)-2,7-diazaspiro[3.5]nonan-7-yl)methanone] | 16 |
| Cc1ccc(-c2nc3nc(N4CCC[C@H]4C(=O)N4CCN(CC(F)(F)C(F)F)CC4)nc(N)n3n2)o1 [Example 298, (S)-(1-(7-amino-2-(5-methylfuran-2-yl)-[1,2,4]triazolo[1,5-a][1,3,5]triazin-5-yl)pyrrolidin-2-yl)(4-(2,2,3,3-tetrafluoropropyl)piperazin-1-yl) methanone] | 3 |
| Cc1ccc(-c2nc3nc(N4CCC[C@H]4C(=O)N4CCN(c5ccccc5C(F)(F)F)CC4)nc(N)n3n2)o1 [Example 200, (S)-(1-(7-amino-2-(5-methylfuran-2-yl)-[1,2,4]triazolo[1,5-a][1,3,5]triazin-5-yl)pyrrolidin-2-yl)(4-(2-(trifluoromethyl)phenyl)piperazin-1-yl)methanone] | 1 |
| Cc1ccc(-c2nc3nc(N4CCC[C@H]4C(=O)N4CCC(C5CCN(CC(F)(F)F)CC5)CC4)nc(N)n3n2)o1 [Example 197, (S)-(1-(7-amino-2-(5-methylfuran-2-yl)-[1,2,4]triazolo[1,5-a][1,3,5]triazin-5-yl)pyrrolidin-2-yl)(1′-(2,2,2-trifluoroethyl)-[4,4′-bipiperidin]-1-yl)methanone] | 3 |
| Cc1ccc(-c2nc3nc(N4CCC[C@H]4C(=O)N4CCC(c5ccc(F)cc5F)CC4)nc(N)n3n2)o1 [Example 201, (S)-(1-(7-amino-2-(5-methylfuran-2-yl)-[1,2,4]triazolo[1,5-a][1,3,5]triazin-5-yl)pyrrolidin-2-yl)(4-(2,4-difluorophenyl)piperidin-1-yl) methanone] | 5 |
| COc1ccc(NC(=O)N2CCN(C(=O)[C@@H]3CCCN3c3nc(N)n4nc(-c5ccco5)nc4n3)CC2)cc1 [Example 62, 4-((7-amino-2-(furan-2-yl)-[1,2,4]triazolo[1,5-a][1,3,5]triazin-5-yl)-L-prolyl)-N-(4-methoxyphenyl)piperazin-1-carboxamide] | 6 |
| Nc1nc(N2CCC[C@H]2C(=O)N2CCN(c3ncccc3C(F)(F)F)CC2)nc2nc(-c3ccco3)nn12 [Example 124, (S)-(1-(7-amino-2-(furan-2-yl)-[1,2,4]triazolo[1,5-a][1,3,5]triazin-5-yl)pyrrolidin-2-yl)(4-(3-(trifluoromethyl)pyridin-2-yl)piperazin-1-yl)methanone] | 2 |

Next, values leading:

| IC50 [nM] | Compound |
| --- | --- |
| 17 | Nc1nc(N2CCC[C@H]2C(=O)N2CCC(CN3CC(F)C3)CC2)nc2nc(-c3ccco3)nn12 [Example 406, (S)-(1-(7-amino-2-(furan-2-yl)-[1,2,4]triazolo[1,5-a][1,3,5]triazin-5-yl)pyrrolidin-2-yl)(4-((3-fluoroazetidin-1-yl)methyl)piperidin-1-yl)methanone] |
| 8 | Nc1nc(N[C@H](C(=O)N2CCN(CC(F)(F)F)CC2)C2CCCCC2)nc2nc(-c3ccco3)nn12 [Example 148, (S)-2-((7-amino-2-(furan-2-yl)-[1,2,4]triazolo[1,5-a][1,3,5]triazin-5-yl)amino)-2-cyclohexyl-1-(4-(2,2,2-trifluoroethyl)piperazin-1-yl)ethan-1-one] |
| 10 | CC(C)S(=O)(=O)N1CCN(C(=O)[C@@H]2CCCN2c2nc(N)n3nc(-c4ccco4)nc3n2)CC1 [Example 71, (S)-(1-(7-amino-2-(furan-2-yl)-[1,2,4]triazolo[1,5-a][1,3,5]triazin-5-yl)pyrrolidin-2-yl)(4-(isopropylsulfonyl)piperazin-1-yl)methanone] |
| 7 | Nc1nc(N2CCC[C@H]2C(=O)N2CCN(CC(F)(F)C(F)F)CC2)nc2nc(-c3ccco3)nn12 [Example 226, (S)-(1-(7-amino-2-(furan-2-yl)-[1,2,4]triazolo[1,5-a][1,3,5]triazin-5-yl)pyrrolidin-2-yl)(4-(2,2,3,3-tetrafluoropropyl)piperazin-1-yl)methanone] |
| 9 | CC(F)(F)CN1CCN(C(=O)[C@@H](Nc2nc(N)n3nc(-c4ccco4)nc3n2)C2CC2)CC1 [Example 357, (S)-2-((7-amino-2-(furan-2-yl)-[1,2,4]triazolo[1,5-a][1,3,5]triazin-5-yl)amino)-2-cyclopropyl-1-(4-(2,2-difluoropropyl)piperazin-1-yl)ethan-1-one] |
| 20 | CCCCN1CCN(C(=O)[C@@H](Nc2nc(N)n3nc(-c4ccco4)nc3n2)C(C)C)CC1 [Example 143, (S)-2-((7-amino-2-(furan-2-yl)-[1,2,4]triazolo[1,5-a][1,3,5]triazin-5-yl)amino)-1-(4-butylpiperazin-1-yl)-3-methylbutan-1-one] |
| 10 | CC1CN(C(=O)[C@H](C)Nc2nc(N)n3nc(-c4ccco4)nc3n2)CC(C)N1C(=O)N1CCOCC1 (stereo partly drawn) [Example 129, (2S)-2-((7-amino-2-(furan-2-yl)-[1,2,4]triazolo[1,5-a][1,3,5]triazin-5-yl)amino)-1-(3,5-dimethyl-4-(morpholine-4-carbonyl)piperazin-1-yl)propan-1-one] |
| 11 | Nc1nc(N2CCC[C@H]2C(=O)N2CCN(CC3CCC(C(F)(F)F)CC3)CC2)nc2nc(-c3ccco3)nn12 (stereo partly drawn) [Example 330, (S)-(1-(7-amino-2-(furan-2-yl)-[1,2,4]triazolo[1,5-a][1,3,5]triazin-5-yl)pyrrolidin-2-yl)(4-((4-(trifluoromethyl)cyclohexyl)methyl)piperazin-1-yl)methanone] |
| 2290 | COCCN1CCN(C(=O)[C@H]2CCCN2c2nc(N)n3nc(-c4ccco4)nc3n2)CC1 [Example 92, (R)-(1-(7-amino-2-(furan-2-yl)-[1,2,4]triazolo[1,5-a][1,3,5]triazin-5-yl)pyrrolidin-2-yl)(4-(2-methoxyethyl)piperazin-1-yl)methanone] |
| 20 | Nc1nc(N[C@@H](Cc2ccccc2)C(=O)N2CCCN(Cc3ccccc3)CC2)nc2nc(-c3ccco3)nn12 [Example 20, (S)-2-((7-amino-2-(furan-2-yl)-[1,2,4]triazolo[1,5-a][1,3,5]triazin-5-yl)amino)-1-(4-benzyl-1,4-diazepan-1-yl)-3-phenylpropan-1-one] |
| 0.357 | CC(C)[C@H](Nc1nc(N)n2nc(-c3ccco3)nc2n1)C(=O)N1CCN(c2ccc(F)cc2F)CC1 [Example 10, (S)-2-((7-amino-2-(furan-2-yl)-[1,2,4]triazolo[1,5-a][1,3,5]triazin-5-yl)amino)-1-(4-(2,4-difluorophenyl)piperazin-1-yl)-3-methylbutan-1-one] |
| 18 | COC1CCN(C(=O)[C@@H]2CCCN2c2nc(N)n3nc(-c4ccco4)nc3n2)CC1 [Example 146, (S)-(1-(7-amino-2-(furan-2-yl)-[1,2,4]triazolo[1,5-a][1,3,5]triazin-5-yl)pyrrolidin-2-yl)(4-methoxypiperidin-1-yl)methanone] |
| 10 | CCCCN1CCN(C(=O)[C@@H](Nc2nc(N)n3nc(-c4ccco4)nc3n2)C2CCCCC2)CC1 [Example 187, (S)-2-((7-amino-2-(furan-2-yl)-[1,2,4]triazolo[1,5-a][1,3,5]triazin-5-yl)amino)-1-(4-butylpiperazin-1-yl)-2-cyclohexylethan-1-one] |
| 2.42 | C[C@H](Nc1nc(N)n2nc(-c3ccco3)nc2n1)C(=O)N1CCN(c2ccc(F)cc2F)CC1 [Example 9, (S)-2-((7-amino-2-(furan-2-yl)-[1,2,4]triazolo[1,5-a][1,3,5]triazin-5-yl)amino)-1-(4-(2,4-difluorophenyl)piperazin-1-yl)propan-1-one] |
